Where “and” joins values, the source holds several entries; their conditions need not be identical. Equal entries are not always repeated. Toxic doses and inconclusive results are not listed. Rule as the data show it: active = T/C of 150% or more; inactive = T/C below 125%.
Tested on: L1210 leukemia ip in BDF1 mice, survival T/C
Assay: NCI In Vivo Anticancer Drug Screen. Data for tumor model L1210 Leukemia (intraperitoneal) in B6D2F1 (BDF1) mice
Conditions: higher = longer survival
How it was run: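 Antitumor effect is assessed in tumor-bearing animals. Survival in the compound arm is compared with a vehicle-dosed control arm and expressed as their quotient.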

Measured: T/C

CC[n+]1c(-c2ccccc2)c2cc(N)ccc2c2ccc(N)cc21
inactive: endpoint: mean survival time, dose: 0.63 mg/kg/injection, schedule: Q01DX Z (ip), vehicle: saline 113 % of control | endpoint: mean survival time, dose: 1.25 mg/kg/injection, schedule: Q01DX Z (ip), vehicle: saline 122 % of control | endpoint: mean survival time, dose: 2.25 mg/kg/injection, schedule: Q01DX001 (ip), vehicle: saline 110 % of control and 113 % of control | endpoint: mean survival time, dose: 2.25 mg/kg/injection, schedule: Q07DX003 (ip), vehicle: saline 113 % of control | endpoint: mean survival time, dose: 2.5 mg/kg/injection, schedule: Q01DX005 (ip), vehicle: saline 109 % of control | endpoint: mean survival time, dose: 2.5 mg/kg/injection, schedule: Q01DX009 (ip), vehicle: saline 107 % of control | endpoint: mean survival time, dose: 2.5 mg/kg/injection, schedule: Q## X040 (ip), vehicle: saline 107 % of control | endpoint: mean survival time, dose: 2.5 mg/kg/injection, schedule: Q#A X Z (ip), vehicle: saline 108 % of control | endpoint: mean survival time, dose: 4.4 mg/kg/injection, schedule: Q02DX010 (ip), vehicle: saline 110 % of control | endpoint: mean survival time, dose: 4.5 mg/kg/injection, schedule: Q01DX001 (ip), vehicle: saline 104 % of control and 113 % of control | endpoint: mean survival time, dose: 4.5 mg/kg/injection, schedule: Q07DX003 (ip), vehicle: saline 109 % of control | endpoint: mean survival time, dose: 5.0 mg/kg/injection, schedule: Q01DX005 (ip), vehicle: saline 116 % of control | endpoint: mean survival time, dose: 5.0 mg/kg/injection, schedule: Q01DX006 (iv), vehicle: saline 104 % of control | endpoint: mean survival time, dose: 5.0 mg/kg/injection, schedule: Q01DX009 (ip), vehicle: saline 108 % of control | endpoint: mean survival time, dose: 5.0 mg/kg/injection, schedule: Q01DX Z (im), vehicle: saline 106 % of control | endpoint: mean survival time, dose: 5.0 mg/kg/injection, schedule: Q01DX Z (sc), vehicle: saline 110 % of control | endpoint: mean survival time, dose: 5.0 mg/kg/injection, schedule: Q## X040 (ip), vehicle: saline 111 % of control | endpoint: mean survival time, dose: 5.3 mg/kg/injection, schedule: Q02DX010 (ip), vehicle: saline 116 % of control | endpoint: mean survival time, dose: 6.6 mg/kg/injection, schedule: Q02DX010 (ip), vehicle: saline 116 % of control | endpoint: mean survival time, dose: 9.0 mg/kg/injection, schedule: Q01DX001 (ip), vehicle: saline 113 % of control and 116 % of control | endpoint: mean survival time, dose: 9.0 mg/kg/injection, schedule: Q07DX003 (ip), vehicle: saline 110 % of control | endpoint: mean survival time, dose: 9.9 mg/kg/injection, schedule: Q02DX010 (ip), vehicle: saline 115 % of control | endpoint: mean survival time, dose: 10.0 mg/kg/injection, schedule: Q01DX005 (ip), vehicle: saline 120 % of control | endpoint: mean survival time, dose: 10.0 mg/kg/injection, schedule: Q01DX006 (iv), vehicle: saline 123 % of control | endpoint: mean survival time, dose: 10.0 mg/kg/injection, schedule: Q01DX009 (ip), vehicle: saline 116 % of control | endpoint: mean survival time, dose: 10.0 mg/kg/injection, schedule: Q01DX Z (im), vehicle: saline 119 % of control | endpoint: mean survival time, dose: 10.0 mg/kg/injection, schedule: Q01DX Z (sc), vehicle: saline 116 % of control | endpoint: mean survival time, dose: 10.0 mg/kg/injection, schedule: Q## X040 (ip), vehicle: saline 112 % of control | endpoint: mean survival time, dose: 10.0 mg/kg/injection, schedule: Q#A X Z (ip), vehicle: saline 112 % of control | endpoint: mean survival time, dose: 12.5 mg/kg/injection, schedule: Q04DX003 (ip), vehicle: water 104 % of control | endpoint: mean survival time, dose: 14.85 mg/kg/injection, schedule: Q02DX010 (ip), vehicle: saline 113 % of control | endpoint: mean survival time, dose: 15.0 mg/kg/injection, schedule: Q03DX006 (ip), vehicle: saline 118 % of control | endpoint: mean survival time, dose: 18.0 mg/kg/injection, schedule: Q01DX001 (ip), vehicle: saline 116 % of control and 121 % of control | endpoint: mean survival time, dose: 18.0 mg/kg/injection, schedule: Q07DX003 (ip), vehicle: saline 122 % of control | endpoint: mean survival time, dose: 20.0 mg/kg/injection, schedule: Q01DX001 (ip), vehicle: saline 109 % of control | endpoint: mean survival time, dose: 20.0 mg/kg/injection, schedule: Q01DX001 (sc), vehicle: saline 103 % of control | endpoint: mean survival time, dose: 20.0 mg/kg/injection, schedule: Q01DX003 (ip), vehicle: saline 118 % of control | endpoint: mean survival time, dose: 20.0 mg/kg/injection, schedule: Q01DX005 (ip), vehicle: saline 110 % of control | endpoint: mean survival time, dose: 20.0 mg/kg/injection, schedule: Q01DX009 (ip), vehicle: saline 117 % of control | endpoint: mean survival time, dose: 20.0 mg/kg/injection, schedule: Q01DX Z (im), vehicle: saline 116 % of control | endpoint: mean survival time, dose: 20.0 mg/kg/injection, schedule: Q01DX Z (ip), vehicle: saline 95 % of control | endpoint: mean survival time, dose: 20.0 mg/kg/injection, schedule: Q01DX Z (oral), vehicle: saline 110 % of control | endpoint: mean survival time, dose: 20.0 mg/kg/injection, schedule: Q01DX Z (sc), vehicle: saline 122 % of control | endpoint: mean survival time, dose: 20.0 mg/kg/injection, schedule: Q## X008 (ip), vehicle: saline 94 % of control | endpoint: mean survival time, dose: 20.0 mg/kg/injection, schedule: Q## X024 (ip), vehicle: saline 107 % of control | endpoint: mean survival time, dose: 22.27 mg/kg/injection, schedule: Q02DX010 (ip), vehicle: saline 117 % of control | endpoint: mean survival time, dose: 25.0 mg/kg/injection, schedule: Q04DX003 (ip), vehicle: water 104 % of control | endpoint: mean survival time, dose: 40.0 mg/kg/injection, schedule: Q01DX001 (ip), vehicle: saline 118 % of control | endpoint: mean survival time, dose: 40.0 mg/kg/injection, schedule: Q01DX001 (sc), vehicle: saline 102 % of control | endpoint: mean survival time, dose: 40.0 mg/kg/injection, schedule: Q01DX003 (ip), vehicle: saline 110 % of control | endpoint: mean survival time, dose: 40.0 mg/kg/injection, schedule: Q01DX005 (ip), vehicle: saline 96 % of control | endpoint: mean survival time, dose: 40.0 mg/kg/injection, schedule: Q01DX009 (ip), vehicle: saline 90 % of control | endpoint: mean survival time, dose: 40.0 mg/kg/injection, schedule: Q01DX Z (oral), vehicle: saline 113 % of control | endpoint: mean survival time, dose: 40.0 mg/kg/injection, schedule: Q## X008 (ip), vehicle: saline 95 % of control | endpoint: mean survival time, dose: 40.0 mg/kg/injection, schedule: Q## X024 (ip), vehicle: saline 111 % of control | endpoint: mean survival time, dose: 40.0 mg/kg/injection, schedule: Q## X040 (ip), vehicle: saline 93 % of control | endpoint: mean survival time, dose: 60.0 mg/kg/injection, schedule: Q03DX006 (ip), vehicle: saline 93 % of control | endpoint: mean survival time, dose: 70.0 mg/kg/injection, schedule: Q01DX001 (ip), vehicle: saline 118 % of control and 119 % of control | endpoint: mean survival time, dose: 70.0 mg/kg/injection, schedule: Q07DX003 (ip), vehicle: saline 124 % of control | endpoint: mean survival time, dose: 80.0 mg/kg/injection, schedule: Q01DX001 (ip), vehicle: saline 103 % of control | endpoint: mean survival time, dose: 80.0 mg/kg/injection, schedule: Q01DX001 (sc), vehicle: saline 108 % of control | endpoint: mean survival time, dose: 80.0 mg/kg/injection, schedule: Q01DX003 (ip), vehicle: saline 98 % of control | endpoint: mean survival time, dose: 80.0 mg/kg/injection, schedule: Q01DX Z (oral), vehicle: saline 108 % of control | endpoint: mean survival time, dose: 80.0 mg/kg/injection, schedule: Q## X008 (ip), vehicle: saline 103 % of control | endpoint: mean survival time, dose: 140.0 mg/kg/injection, schedule: Q01DX001 (ip), vehicle: saline 104 % of control and 124 % of control | endpoint: mean survival time, dose: 160.0 mg/kg/injection, schedule: Q01DX001 (ip), vehicle: saline 94 % of control | endpoint: mean survival time, dose: 160.0 mg/kg/injection, schedule: Q01DX Z (oral), vehicle: saline 113 % of control | endpoint: mean survival time, dose: 160.0 mg/kg/injection, schedule: Q## X024 (ip), vehicle: saline 94 % of control | endpoint: mean survival time, dose: 200.0 mg/kg/injection, schedule: Q01DX001 (oral), vehicle: saline 103 % of control | endpoint: mean survival time, dose: 215.0 mg/kg/injection, schedule: Q04DX003 (ip), vehicle: water 109 % of control | endpoint: mean survival time, dose: 400.0 mg/kg/injection, schedule: Q01DX001 (oral), vehicle: saline 103 % of control | endpoint: mean survival time, dose: 430.0 mg/kg/injection, schedule: Q04DX003 (ip), vehicle: water 93 % of control | endpoint: mean survival time, dose: 800.0 mg/kg/injection, schedule: Q01DX001 (oral), vehicle: saline 101 % of control | endpoint: mean survival time, dose: 1600.0 mg/kg/injection, schedule: Q01DX001 (oral), vehicle: saline 102 % of control | endpoint: median survival time, dose: 3.6 mg/kg/injection, schedule: Q01DX005 (ip), vehicle: water 105 % of control | endpoint: median survival time, dose: 5.0 mg/kg/injection, schedule: Q01DX009 (ip), vehicle: water 109 % of control and 110 % of control | endpoint: median survival time, dose: 6.0 mg/kg/injection, schedule: Q01DX005 (ip), vehicle: water 100 % of control | endpoint: median survival time, dose: 10.0 mg/kg/injection, schedule: Q01DX005 (ip), vehicle: water 111 % of control | endpoint: median survival time, dose: 10.0 mg/kg/injection, schedule: Q01DX009 (ip), vehicle: water 116 % of control and 120 % of control | endpoint: median survival time, dose: 17.0 mg/kg/injection, schedule: Q01DX005 (ip), vehicle: water 111 % of control | endpoint: median survival time, dose: 17.0 mg/kg/injection, schedule: Q04DX003 (ip), vehicle: water 100 % of control | endpoint: median survival time, dose: 20.0 mg/kg/injection, schedule: Q01DX009 (ip), vehicle: water 90 % of control | endpoint: median survival time, dose: 29.0 mg/kg/injection, schedule: Q01DX005 (ip), vehicle: water 116 % of control | endpoint: median survival time, dose: 29.0 mg/kg/injection, schedule: Q04DX003 (ip), vehicle: water 100 % of control | endpoint: median survival time, dose: 40.0 mg/kg/injection, schedule: Q01DX009 (ip), vehicle: water 70 % of control | endpoint: median survival time, dose: 48.0 mg/kg/injection, schedule: Q04DX003 (ip), vehicle: water 100 % of control | endpoint: median survival time, dose: 49.0 mg/kg/injection, schedule: Q01DX005 (ip), vehicle: water 116 % of control | endpoint: median survival time, dose: 80.0 mg/kg/injection, schedule: Q04DX003 (ip), vehicle: water 105 % of control | endpoint: median survival time, dose: 134.0 mg/kg/injection, schedule: Q04DX003 (ip), vehicle: water 111 % of control

— PubChem BioAssay AID248 (DTP/NCI, 2004)
